# Literature values in patent US20220031887A1, “Active Materials, Surfaces, Surface Treatments And Methods Using Inclusion Complex Formers For Pathogen Reduction” (priority 2020, published 2022).
smiles,measurement,setting,value
O=C1OC2(c3ccccc31)c1cc(Br)c(O)c(Br)c1Oc1c2cc(Br)c(O)c1Br [Eosin Y],Epsilon,in ideal solvent,"112,000"
same,Lambda Max,peak absorption in visible light,525
